Data on 35 compounds can be found in patent US20060100245A1, “Substituted biphenyl-4-carboxylic acid arylamide analogues” (Neurogen Corporation, priority 2002, published 2006).

A word on the Ki: it is the dissociation constant of the complex between target and ligand, obtained from inhibition or displacement.

The assay concerns the target T1, human capsaicin receptor (VR1) (Homo sapiens, UniProt Q8NER1).
T1 construct: transfected with the pBK-CMV expression construct encoding the full length human capsaicin receptor; expressed in transfected cells
In words: Capsaicin receptor binding assay ([3H]RTX competition). The following applies: read-out: Ki. An excerpt:
This Example illustrates the preparation of VR1-transfected cells and membrane preparations for use in binding assays (Example 5) and functional assays (Example 6).
A cDNA encoding full length human capsaicin receptor (SEQ ID NO: 1, 2 or 3 of U.S. Pat. No. 6,482,611) was subcloned in the plasmid pBK-CMV (Stratagene, La Jolla, Calif.) for recombinant expression in mammalian cells.
Human embryonic kidney (HEK293) cells were transfected with the pBK-CMV expression construct encoding the full length human capsaicin receptor using standard methods. The transfected cells were selected for two weeks in media containing G418 ([…]) to obtain a pool of stably transfected cells. Independent clones were isolated from this pool by limiting dilution to obtain clonal stable cell lines for use in subsequent experiments.
For radioligand binding experiments, cells were seeded in T175 cell culture flasks in media without antibiotics and grown to approximately 90% confluency. The flasks were then washed with PBS and harvested in PBS containing 5 mM EDTA. The cells were pelleted by gentle centrifugation and stored at −80° C. until assayed.
Previously frozen cells were disrupted with the aid of a tissue homogenizer in ice-cold HEPES homogenization buffer (5mM KCl 5, 5.8 mM NaCl, 0.75 mM CaCl2, 2 mM MgCl2, 320 mM sucrose, and 10 mM HEPES pH 7.4). Tissue homogenates were first centrifuged for 10 minutes at 1000×g (4° C.) to remove the nuclear fraction and debris, and then the supernatant from the first centrifugation is further centrifuged for 30 minutes at 35,000×g (4° C.) to obtain a partially purified membrane fraction. Membranes were resuspended in the HEPES homogenization buffer prior to the assay. An aliquot of this membrane homogenate is used to determine protein concentration via the Bradford method (BIO-RAD Protein Assay Kit, #500-0001, BIO-RAD, Hercules, Calif.).
This Example illustrates a representative assay of capsaicin receptor binding that may be used to determine the binding affinity of compounds for the capsaicin (VR1) receptor.
Binding studies with [^3H] Resiniferatoxin (RTX) are carried out essentially as described by Szallasi and Blumberg (1992) J. Pharmacol. Exp. Ter. 262: 883-888. In this protocol, non-specific RTX binding is reduced by adding bovine alpha, acid glycoprotein (100 μg per tube) after the binding reaction has been terminated.
[^3H] RTX (37 Ci/mmol) is synthesized by and obtained from the Chemical Synthesis and Analysis Laboratory, National Cancer Institute-Frederick Cancer Research and Development Center, Frederick, Md. [^3H] RTX may also be obtained from commercial vendors (e.g., Amersham Pharmacia Biotech, Inc.; Piscataway, N.J.).
The membrane homogenate of Example 4 is centrifuged as before and resuspended to a protein concentration of 333 μg/ml in homogenization buffer. Binding assay mixtures are set up on ice and contain [^3H]JRTX (specific activity 2200 mCi/ml), 2 μl non-radioactive test compound, 0.25 mg/ml bovine serum albumin (Cohn fraction V), and 5×10^4−1×10^5 VR1-transfected cells. The final volume is adjusted to 500 μl (for competition binding assays) or 1,000 μl (for saturation binding assays) with the ice-cold HEPES homogenization buffer solution (pH 7.4) described above. Non-specific binding is defined as that occurring in the presence of 1 μM non-radioactive RTX (Alexis Corp.; San Diego, Calif.). For saturation binding, [^3H]RTX is added in the concentration range of […], using 1 to 2 dilutions. Typically 11 concentration points are collected per saturation binding curve.
Competition binding assays are performed in the presence of 60 pM [^3H]RTX and various concentrations of test compound. The binding reactions are initiated by transferring the assay mixtures into a 37° C. water bath and are terminated following a 60 minute incubation period by cooling the tubes on ice.

T1 sequence (Q8NER1 whole entry): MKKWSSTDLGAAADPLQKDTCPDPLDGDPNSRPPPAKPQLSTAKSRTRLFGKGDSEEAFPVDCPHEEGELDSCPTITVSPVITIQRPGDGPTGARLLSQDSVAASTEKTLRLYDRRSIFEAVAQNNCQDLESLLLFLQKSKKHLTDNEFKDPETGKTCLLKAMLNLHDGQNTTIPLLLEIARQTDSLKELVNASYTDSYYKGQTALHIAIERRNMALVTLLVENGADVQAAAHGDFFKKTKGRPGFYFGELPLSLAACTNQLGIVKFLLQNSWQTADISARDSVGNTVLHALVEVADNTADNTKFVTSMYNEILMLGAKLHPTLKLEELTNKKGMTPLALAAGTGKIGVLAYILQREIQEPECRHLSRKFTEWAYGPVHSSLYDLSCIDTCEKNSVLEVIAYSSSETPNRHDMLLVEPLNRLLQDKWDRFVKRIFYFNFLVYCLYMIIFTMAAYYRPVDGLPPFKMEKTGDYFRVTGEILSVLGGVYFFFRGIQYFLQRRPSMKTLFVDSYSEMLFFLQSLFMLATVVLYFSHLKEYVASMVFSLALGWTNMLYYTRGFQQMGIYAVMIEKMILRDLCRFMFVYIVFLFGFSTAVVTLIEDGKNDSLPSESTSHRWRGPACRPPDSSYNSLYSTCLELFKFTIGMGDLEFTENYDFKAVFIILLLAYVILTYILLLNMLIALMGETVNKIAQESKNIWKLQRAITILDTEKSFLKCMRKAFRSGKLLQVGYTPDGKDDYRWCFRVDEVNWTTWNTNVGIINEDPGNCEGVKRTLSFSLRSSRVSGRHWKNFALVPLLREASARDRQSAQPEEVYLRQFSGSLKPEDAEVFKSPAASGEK

For `O=C(Nc1ccc2c(c1)OCCO2)c1ccc(-c2ccccc2F)nc1` [Compound 192, N-(2,3-Dihydro-benzo[1,4]dioxin-6-yl)-6-(2-fluoro-phenyl)-nicotinamide], the Ki is less than 1000 nM.

As for `CCOc1cccc(-c2ccc(C(=O)Nc3ccc4c(c3)OCCO4)cn2)c1` [Compound 194, N-(2,3-Dihydro-benzo[1,4]dioxin-6-yl)-6-(3-ethoxy-phenyl)-nicotinamide], the Ki was less than 1000 nM. Under `CC(C)c1cccc(-c2ccc(C(=O)Nc3ccc4c(c3)OCCO4)cn2)c1` [Compound 196, N-(2,3-Dihydro-benzo[1,4]dioxin-6-yl)-6-(3-isopropyl-phenyl)-nicotinamide] stands less than 1000 nM. For `Cc1cccc(-c2ccc(C(=O)Nc3ccc4c(c3)OCCO4)cn2)c1` [Compound 202, N-(2,3-Dihydro-benzo[1,4]dioxin-6-yl)-6-m-tolyl-nicotinamide] the value was less than 1000 nM. Under `Cc1nc2cc(NC(=O)c3ccc(-c4cccc(OC(F)(F)F)c4)nc3)ccc2s1` [Compound 207, N-(2-Methyl-benzothiazol-5-yl)-6-(3-trifluoromethoxy-phenyl)-nicotinamide] stands less than 1000 nM; under `Cc1cccc(-c2ccc(C(=O)Nc3ccc4sc(C)nc4c3)cn2)c1` [Compound 208, N-(2-Methyl-benzothiazol-5-yl)-6-m-tolyl-nicotinamide], less than 1000 nM. With `Cc1nc2cc(NC(=O)c3ccc(-c4ccccc4)nc3)ccc2s1` [Compound 209, N-(2-Methyl-benzothiazol-5-yl)-6-phenyl-nicotinamide], the Ki was less than 1000 nM. Under `O=C(Nc1ccc(F)c(F)c1)c1ccc(-c2ncccc2F)cc1` [Compound 214, N-(3,4-Difluoro-phenyl)-4-(3-fluoro-pyridin-2-yl)-benzamide] stands less than 1000 nM; under `O=C(Nc1ccc2c(c1)OCCCO2)c1ccc(-c2ccccc2F)nc1` [Compound 218, N-(3,4-Dihydro-2H-benzo[b][1,4]dioxepin-7-yl)-6-(2-fluoro-phenyl)-nicotinamide], less than 1000 nM. With `O=C(Nc1ccc2c(c1)OCCCO2)c1ccc(-c2cccc(F)c2)nc1` [Compound 220, N-(3,4-Dihydro-2H-benzo[b][1,4]dioxepin-7-yl)-6-(3-fluoro-phenyl)-nicotinamide], the Ki was less than 1000 nM. Under `CC(C)c1cccc(-c2ccc(C(=O)Nc3ccc4c(c3)OCCCO4)cn2)c1` [Compound 221, N-(3,4-Dihydro-2H-benzo[b][1,4]dioxepin-7-yl)-6-(3-isopropyl-phenyl)-nicotinamide] stands less than 1000 nM; under `O=C(Nc1ccc2c(c1)OCCCO2)c1ccc(-c2cccc(OC(F)(F)F)c2)nc1` [Compound 223, N-(3,4-Dihydro-2H-benzo[b][1,4]dioxepin-7-yl)-6-(3-trifluoromethoxy-phenyl)-nicotinamide], less than 1000 nM. Under `O=C(Nc1ccc2c(c1)OCCCO2)c1ccc(-c2ccccc2)nc1` [Compound 230, N-(3,4-Dihydro-2H-benzo[b][1,4]dioxepin-7-yl)-6-phenyl-nicotinamide] stands less than 1000 nM. Under `COc1ccc(NC(=O)c2ccc(-c3ccccc3F)nc2)cc1OC` [Compound 232, N-(3,4-Dimethoxy-phenyl)-6-(2-fluoro-phenyl)-nicotinamide] stands less than 1000 nM. Regarding `Cc1cc(C)cc(-c2ccc(C(=O)Nc3ccc(C)c(C)c3)cn2)c1` [Compound 237, N-(3,4-Dimethyl-phenyl)-6-(3,5-dimethyl-phenyl)-nicotinamide], the Ki is less than 1000 nM. For `CCOc1cccc(-c2ccc(C(=O)Nc3ccc(C)c(C)c3)cn2)c1` [Compound 238, N-(3,4-Dimethyl-phenyl)-6-(3-ethoxyl-phenyl)-nicotinamide] the value was less than 1000 nM. For `Cc1ccc(NC(=O)c2ccc(-c3cccc(F)c3)nc2)cc1C` [Compound 239, N-(3,4-Dimethyl-phenyl)-6-(3-fluoro-phenyl)-nicotinamide] the value was less than 1000 nM; for `COc1cccc(-c2ccc(C(=O)Nc3ccc(C)c(C)c3)cn2)c1` [Compound 241, N-(3,4-Dimethyl-phenyl)-6-(3-methoxy-phenyl)-nicotinamide], less than 1000 nM. For `Cc1ccc(NC(=O)c2ccc(-c3cccc(OC(F)(F)F)c3)nc2)cc1C` [Compound 242, N-(3,4-Dimethyl-phenyl)-6-(3-trifluoromethoxy-phenyl)-nicotinamide] the value was less than 1000 nM; for `Cc1cccc(-c2ccc(C(=O)Nc3ccc(C)c(C)c3)cn2)c1` [Compound 247, N-(3,4-Dimethyl-phenyl)-6-m-tolyl-nicotinamide], less than 1000 nM. Take `Cc1ccc(NC(=O)c2ccc(-c3ccccc3C)nc2)cc1C` [Compound 248, N-(3,4-Dimethyl-phenyl)-6-o-tolyl-nicotinamide]: the Ki is less than 1000 nM. For `Cc1ccc(NC(=O)c2ccc(-c3ccccc3)nc2)cc1C` [Compound 249, N-(3,4-Dimethyl-phenyl)-6-phenyl-nicotinamide] the value was less than 1000 nM; for `Cc1ccc(NC(=O)c2ccc(-c3cccc(F)c3)nc2)cc1F` [Compound 266, N-(3-Fluoro-4-methyl-phenyl)-6-(3-fluoro-phenyl)-nicotinamide], less than 1000 nM. For `Cc1ccc(NC(=O)c2ccc(-c3cccc(C(C)C)c3)nc2)cc1F` [Compound 267, N-(3-Fluoro-4-methyl-phenyl)-6-(3-isopropyl-phenyl)-nicotinamide] the value was less than 1000 nM; for `COc1cccc(-c2ccc(C(=O)Nc3ccc(C)c(F)c3)cn2)c1` [Compound 268, N-(3-Fluoro-4-methyl-phenyl)-6-(3-methoxy-phenyl)-nicotinamide], less than 1000 nM. Regarding `COc1cccc(NC(=O)c2ccc(-c3cccc(OC(F)(F)F)c3)nc2)c1` [Compound 278], the Ki was less than 1000 nM. Under `COc1cccc(NC(=O)c2ccc(-c3cccc(C)c3)nc2)c1` [Compound 280, N-(3-Methoxy-phenyl)-6-m-tolyl-nicotinamide] stands less than 1000 nM; under `COc1cccc(NC(=O)c2ccc(-c3ccccc3)nc2)c1` [Compound 282, N-(3-Methoxy-phenyl)-6-phenyl-nicotinamide], less than 1000 nM.

Turning to `CC(C)(C)c1cccc(NC(=O)c2ccc(-c3ccccc3F)nc2)c1` [Compound 288, N-(3-tert-Butyl-phenyl)-6-(2-fluoro-phenyl)-nicotinamide], the Ki is less than 1000 nM. On to `CC(C)(C)c1cccc(NC(=O)c2ccc(-c3cccc(F)c3)nc2)c1` [Compound 296, N-(3-tert-Butyl-phenyl)-6-(3-fluoro-phenyl)-nicotinamide], for which the Ki was less than 1000 nM. For `Cc1cc(C)cc(-c2ccc(C(=O)Nc3ccc(Br)c(Cl)c3)cn2)c1` [Compound 316, N-(4-Bromo-3-chloro-phenyl)-6-(3,5-dimethyl-phenyl)-nicotinamide] the value was less than 1000 nM; for `CCOc1cccc(-c2ccc(C(=O)Nc3ccc(Br)c(Cl)c3)cn2)c1` [Compound 317, N-(4-Bromo-3-chloro-phenyl)-6-(3-ethoxy-phenyl)-nicotinamide], less than 1000 nM. For `O=C(Nc1ccc(Br)c(Cl)c1)c1ccc(-c2cccc(F)c2)nc1` [Compound 318, N-(4-Bromo-3-chloro-phenyl)-6-(3-fluoro-phenyl)-nicotinamide] the value was less than 1000 nM; for `O=C(Nc1ccc(Br)c(Cl)c1)c1ccc(-c2ccc(F)cc2)nc1` [Compound 320, N-(4-Bromo-3-chloro-phenyl)-6-(4-fluoro-phenyl)-nicotinamide], less than 1000 nM; for `CC(C)c1ccc(-c2ccc(C(=O)Nc3ccc(Br)c(Cl)c3)cn2)cc1` [Compound 321, N-(4-Bromo-3-chloro-phenyl)-6-(4-isopropyl-phenyl)-nicotinamide], less than 1000 nM.
